Source: patent publication US6147077A, “2R,4S-hydroxyitraconazole isomers” (priority 1999, dated 2000)
≈ marks a conversion by molar mass, not a printed value. Read-outs that look alike come from different tables or passages of the source.

Columns and labels:
[1] = Water solubility of hydroxyitraconazole phosphate isomers (NMG salts); assay type: physicochemical; settings: Table 8; for solubility: water
Excerpt: The water solubility of the NMG salts of the phosphate esters of isomers 1, 2 and 3+4 were investigated and compared to the corresponding hydroxyitraconazole isomers 1, 2 and 3+4. The phosphate esters were as much as 10^7 times more water soluble than the corresponding hydroxyitraconazole isomer.

Candida albicans = test: Antifungal MIC, Candida albicans; assay type: cell-based
Experimental: (§1) A 10 mL tube containing 4 mL of Sabourauds dextrose broth was inoculated with 1 colony of Candida albicans picked from a plate of pure culture. The strain was ordered from the American Type Culture Collection (ATCC). The organism was grown for 4 hours at 30° C. while shaking at 150 RPM. While the organism was growing, samples of hydroxy-itraconazoles were solubilized to a concentration of 10 mg/mL in DMSO. Each sample was then diluted 1:10 to make 1 mg/mL samples or 1000 μg/mL. These samples were then diluted by serial 2-fold dilutions to produce samples now containing 1000, 500, 250, 125, 62.5, 31.25, 15.6 μg/mL. […] At 4 hours of growth time the Candida albicans was diluted to a 0.5 McFarland standard representing about 10^5 -10^6 cells/mL and 1 μL of this inoculum placed into each test well of the microtiter dish. The dish was then covered and incubated at 30° C. for 16 hours.

Cr. neoformens = test: Antifungal MIC, Cr. neoformens; assay type: cell-based, Cryptococcus neoformens; settings: for MIC: Cryptococcus
Experimental: [The source words this procedure for another organism and reports this organism under the same test.] as §1

S. cerevisae = test: Antifungal MIC, S. cerevisae; assay type: cell-based, Saccharomyces cerevisiae; settings: for MIC: Saccharomyces cerevisiae
Experimental: [The source words this procedure for another organism and reports this organism under the same test.] as §1

[2] = Hydrolysis of phosphate esters in human plasma; assay type: in vitro ADME; settings: both free acid and bis(N-methylglucamine) salt
Experimental: (§2) The phosphate analogs of the isomers with the largest IC50 /MIC ratios, 1, 2 and 3+4 were further investigated for hydrolysis in plasma and tissues. […] The A% conversion (as determined by HPLC A% analysis) of the phosphate ester to the hydroxy compound was determined in three systems: human plasma, equine pancreas and porcine brain. […] Hydrolysis proceeded to >10% overnight at 37° C. in pancreas and brain, and 3% in human plasma. The hydrolyses of the three phosphates of 1, 2 and 3+4 were also studied in various rat tissues and plasma. In all cases, the jejunum and liver gave the greatest conversion to hydroxyitraconazole, ranging from 20% to 40% for the free acids.

[3] = Hydrolysis of phosphate esters in equine pancreas; assay type: in vitro ADME; settings: both free acid and bis(N-methylglucamine) salt
Experimental: as §2

[4] = Hydrolysis of phosphate esters in porcine brain; assay type: in vitro ADME; settings: both free acid and bis(N-methylglucamine) salt
Experimental: as §2

Sacchromyces cerevisae = test: Kirby-Bauer Testing, Saccharomyces cerevisiae; assay type: cell-based; settings: 10 μl of 10 mg/mL per disk, 30° C., 16 hours; for zone of inhibition at 10000 µg/mL: Saccharomyces cerevisiae
Experimental: The hydroxyitraconazole isomers were tested for biological activity according three different assays.
Actively growing cultures of Candida albicans, Cryptococcus neoformens and Saccharomyces cerevisiae were prepared as described above. The cultures were diluted to a 0.5 McFarland standard and swabbed onto a 150 mm Sabouraud Dextrose agar plates. Paper disks (7 mm) were placed onto the agar plates using a disk dispenser. […] The plates were then incubated at 30° C. for 16 hours. Zones of inhibition were then measured in mm.

A. fumigatis = test: Antifungal MIC, A. fumigatis; assay type: cell-based; settings: A. fumigatis (Table 3)
Experimental: [The source words this procedure for another organism and reports this organism under the same test.] as §1

[5] = Water solubility of hydroxyitraconazole isomers and itraconazole; assay type: physicochemical; settings: for Area: λmax = 260 nm, LOD 5000 μV*sec
Experimental: The isomers of cis hydroxyitraconazole were tested for water solubility against a […] standard solution of hydroxyitraconazole. […] The values for 3+4 and 11+12 are barely above the LOD, giving accuracies of ±10%. In every case, solubilities were in the 10^1 to 10^2 ng/ml range.

cytochrome P450 3A4 [6] = molecular target: T1, cytochrome P450 3A4 (Homo sapiens, UniProt P08684)
Experimental: (§3) The IC50 values were determined by the appearance of 6β-hydroxytestosterone after incubation with testosterone. […] Of greater clinical significance is the ratio of the IC50 for 3A4 to the MIC for C. albicans 44203.

cytochrome P450 3A4 [7] = molecular target: T1, cytochrome P450 3A4; test: Inhibition of cytochrome P450 3A4 (testosterone 6β-hydroxylase activity)
Experimental: as §3

delayed rectifier (IK) = settings: cited from earlier work
[8] = Candida albicans, C. albicans (Table 7, esters), read-out: Antifungal MIC
[9] = LOD: 5000 μV*sec, order-of-magnitude accuracy below LOD, 3+4 and 11+12 ±10%
[10] = Candida albicans, C. albicans strain 28516 (Table 3), read-out: Antifungal MIC
[11] = Candida albicans, C. albicans strain 28815 (Table 3), read-out: Antifungal MIC
[12] = Candida albicans, C. albicans strain 44203 (Table 3), read-out: Antifungal MIC
[13] = Candida albicans, C. albicans strain 44373 (Table 3), read-out: Antifungal MIC
[14] = Candida albicans, Candida albicans strain 44203 (Table 4), read-out: MIC

T1 sequence (P08684 whole entry): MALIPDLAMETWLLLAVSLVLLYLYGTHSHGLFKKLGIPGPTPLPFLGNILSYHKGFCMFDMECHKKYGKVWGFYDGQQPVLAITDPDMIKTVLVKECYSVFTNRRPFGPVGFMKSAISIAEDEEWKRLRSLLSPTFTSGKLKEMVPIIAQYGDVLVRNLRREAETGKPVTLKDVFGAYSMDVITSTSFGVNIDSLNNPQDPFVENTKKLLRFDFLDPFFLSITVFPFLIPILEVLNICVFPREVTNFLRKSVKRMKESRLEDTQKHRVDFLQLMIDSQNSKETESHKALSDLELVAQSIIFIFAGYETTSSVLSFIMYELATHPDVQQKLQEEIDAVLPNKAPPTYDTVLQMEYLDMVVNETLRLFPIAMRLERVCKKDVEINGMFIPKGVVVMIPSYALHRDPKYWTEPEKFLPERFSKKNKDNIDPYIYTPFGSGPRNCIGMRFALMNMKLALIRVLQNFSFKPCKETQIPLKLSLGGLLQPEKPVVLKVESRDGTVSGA

Compound: CC(OP(=O)(O)O)C(C)n1ncn(-c2ccc(N3CCN(c4ccc(OC[C@H]5CO[C@](Cn6cncn6)(c6ccc(Cl)cc6Cl)O5)cc4)CC3)cc2)c1=O (stereo partly shown) [3 + 4-PO3 --NMG2]
- solubility [1]: > 100 mg/mL

Compound: C[C@H](OP(=O)(O)O)[C@@H](C)n1ncn(-c2ccc(N3CCN(c4ccc(OC[C@H]5CO[C@](Cn6cncn6)(c6ccc(Cl)cc6Cl)O5)cc4)CC3)cc2)c1=O [2-PO3 --NMG2]
- solubility [1]: > 100 mg/mL

Compound: CC[C@@H](C)n1ncn(-c2ccc(N3CCN(c4ccc(OC[C@@H]5CO[C@@](Cn6cncn6)(c6ccc(Cl)cc6Cl)O5)cc4)CC3)cc2)c1=O [Compound 8, reference compound]
- MIC (Candida albicans; Candida albicans): < 0.078 µg/mL

Compound: C[C@H](OP(=O)(O)O)[C@@H](C)n1ncn(-c2ccc(N3CCN(c4ccc(OC[C@H]5CO[C@](Cn6cncn6)(c6ccc(Cl)cc6Cl)O5)cc4)CC3)cc2)c1=O [Compound 2-phosphate]
- MIC (Candida albicans; [8]): 12.5 µg/mL (≈ 15.6 µM)
- MIC (Cr. neoformens; Cr. neoformens (Table 7, esters)): 12.5 µg/mL (≈ 15.6 µM)
- MIC (S. cerevisae; S. cerevisae (Table 7, esters)): 12.5 µg/mL (≈ 15.6 µM)
- Ease of hydrolysis of phosphate ester [2]: most readily hydrolyzed compound in all three systems
- Ease of hydrolysis of phosphate ester [3]: most readily hydrolyzed compound in all three systems
- Ease of hydrolysis of phosphate ester [4]: most readily hydrolyzed compound in all three systems

Compound: (2S,4R)-4-[4-[4-[4-[[2,4-dichlorophenyl)-2-(1H-1,2,4-triazol-1-ylmethyl)-1,3-dioxolan-4-yl]methoxy]phenyl]-1-piperazinyl]-2,4-dihydro-2-[(1S,2R)-(2-hydroxy-1-methylpropyl)]-3H-1,2,4,-triazol-3-one [Compound 2]
- Kirby-Bauer zone of inhibition (Sacchromyces cerevisae): 20 mm
- Antifungal MIC (Candida albicans; C. albicans strain 10231 (Table 3)): 0.5 µg/mL
- Antifungal MIC (Candida albicans; C. albicans strain 28516 (Table 3)): 0.25 µg/mL
- Antifungal MIC (Candida albicans; C. albicans strain 28815 (Table 3)): 0.5 µg/mL
- Antifungal MIC (Candida albicans; C. albicans strain 44203 (Table 3)): 0.05 µg/mL
- Antifungal MIC (Candida albicans; C. albicans strain 44373 (Table 3)): 0.25 µg/mL
- Antifungal MIC (Candida albicans; C. albicans strain 62342 (Table 3)): 1.0 µg/mL
- MIC (Candida albicans; Candida albicans strain 44203 (Table 4)): 0.05 µg/mL
- Antifungal MIC (Cr. neoformens; Cr. neoformens (Table 3)): 0.39 µg/mL
- Antifungal MIC (S. cerevisae; S. cerevisae (Table 3)): 0.39 µg/mL
- Antifungal MIC (A. fumigatis): 0.137 µg/mL
- Water solubility [5, 9]: not detected
- Area [5]: not even detected
- Water solubility [1]: < 10 ng/mL
- IC50 /MIC Ratio (cytochrome P450 3A4 [6]): 70
- Inhibition of P450 3A4 in words (cytochrome P450 3A4 [7]; testosterone 6β-hydroxylase activity): notably less inhibition of the P450 3A4 enzyme than the 2S,4R isomers
- IC50/MIC ratio in words (cytochrome P450 3A4 [7]; therapeutic index, 3A4 vs C. albicans 44203): excellent results

Compound: C[C@H](O)[C@@H](C)n1ncn(-c2ccc(N3CCN(c4ccc(OC[C@@H]5CO[C@@](Cn6cncn6)(c6ccc(Cl)cc6Cl)O5)cc4)CC3)cc2)c1=O [Compound 10]
- zone of inhibition at 10000 µg/mL (Sacchromyces cerevisae): 22 mm
- MIC (Candida albicans; [10]): 0.25 µg/mL (≈ 0.346 µM)
- MIC (Candida albicans; [11]): 0.125 µg/mL (≈ 0.173 µM)
- MIC (Candida albicans; [12]): 0.025 µg/mL (≈ 0.0346 µM)
- MIC (Candida albicans; [13]): 0.25 µg/mL (≈ 0.346 µM)
- MIC (Candida albicans; [14]): 0.025 µg/mL (≈ 0.0346 µM)
- MIC (Cr. neoformens; Cr. neoformens (Table 3)): 0.78 µg/mL (≈ 1.08 µM)
- MIC (S. cerevisae; S. cerevisae (Table 3)): 0.195 µg/mL (≈ 0.27 µM)
- MIC (A. fumigatis): 0.137 µg/mL (≈ 0.19 µM)
- Water solubility [5, 9]: not detected
- Area [5]: not even detected
- selectivity ratio (cytochrome P450 3A4 [7]): 19

Compound: C[C@@H](OP(=O)(O)O)[C@H](C)n1ncn(-c2ccc(N3CCN(c4ccc(OC[C@H]5CO[C@](Cn6cncn6)(c6ccc(Cl)cc6Cl)O5)cc4)CC3)cc2)c1=O [1-PO3 --NMG2]
- solubility [1]: > 100 mg/mL

Compound: C[C@H](OS(=O)(=O)O)[C@@H](C)n1ncn(-c2ccc(N3CCN(c4ccc(OC[C@H]5CO[C@](Cn6cncn6)(c6ccc(Cl)cc6Cl)O5)cc4)CC3)cc2)c1=O [Compound 2-sulfate]
- MIC (Candida albicans; [8]): 6.25 µg/mL (≈ 7.8 µM)

Compound: C=C[C@H]1C[N@@]2CC[C@H]1C[C@@H]2[C@@H](O)c1ccnc2ccc(OC)cc12 [quinidine]
- Effect on cardiac repolarization (delayed rectifier (IK); Torsades de Pointes side effect): prolongation of cardiac repolarization
- Block of delayed rectifier (IK) (delayed rectifier (IK)): ability to block a cellular potassium channel called the delayed rectifier (IK)

Compound: CC(O)C(C)n1ncn(-c2ccc(N3CCN(c4ccc(OC[C@@H]5CO[C@@](Cn6cncn6)(c6ccc(Cl)cc6Cl)O5)cc4)CC3)cc2)c1=O (stereo partly shown) [11 + 12]
- zone of inhibition at 10000 µg/mL (Sacchromyces cerevisae): 25 mm
- MIC (Candida albicans; Candida albicans, C. albicans strain 10231 (Table 3), read-out: Antifungal MIC): 1 µg/mL
- MIC (Candida albicans; [10]): 0.25 µg/mL
- MIC (Candida albicans; [11]): 0.125 µg/mL
- MIC (Candida albicans; [12]): 0.05 µg/mL
- MIC (Candida albicans; [13]): 0.5 µg/mL
- MIC (Candida albicans; Candida albicans, C. albicans strain 62342 (Table 3), read-out: Antifungal MIC): 0.5 µg/mL
- MIC (Candida albicans; [14]): 0.05 µg/mL
- MIC (Cr. neoformens; Cr. neoformens (Table 3)): 0.78 µg/mL
- MIC (S. cerevisae; S. cerevisae (Table 3)): 0.195 µg/mL
- MIC (A. fumigatis): 0.137 µg/mL
- solubility ([5]; water, LOD: 5000 μV*sec, order-of-magnitude accuracy below LOD, 3+4 and 11+12 ±10%): 0.59 µg/mL
- selectivity ratio (cytochrome P450 3A4 [7]): 6.5
